Data on 29 compounds can be found in patent US10167279B2 (NOVARTIS AG, priority 2014, dated 2019).

The target in this assay is C-Raf FL (Homo sapiens (Human), UniProt P04049, Y340E/Y341E). Nature of the assay: In vitro Raf activity determination (Alpha Screen, phospho-MEK), C-Raf FL (full length, Y340E/Y341E). Conditions: ATP 1 μM; 60 min pre-incubation; 1 hour reaction; column head does not say FL or TR. The assay is classed as biochemical. An outline of the steps: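 Read-out is AlphaScreen luminescence using rabbit anti-p-MEK with protein A beads after EDTA stop, with IC50 fitted by non-linear regression. Reaction: Sf9-derived C-Raf plus biotinylated E. coli MEK1 K97R substrate, pH 7.5 Tris/MgCl2/DTT buffer, compound preincubated 60 min at room temperature.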
Sequence of C-Raf FL (P04049 whole entry Y340E/Y341E): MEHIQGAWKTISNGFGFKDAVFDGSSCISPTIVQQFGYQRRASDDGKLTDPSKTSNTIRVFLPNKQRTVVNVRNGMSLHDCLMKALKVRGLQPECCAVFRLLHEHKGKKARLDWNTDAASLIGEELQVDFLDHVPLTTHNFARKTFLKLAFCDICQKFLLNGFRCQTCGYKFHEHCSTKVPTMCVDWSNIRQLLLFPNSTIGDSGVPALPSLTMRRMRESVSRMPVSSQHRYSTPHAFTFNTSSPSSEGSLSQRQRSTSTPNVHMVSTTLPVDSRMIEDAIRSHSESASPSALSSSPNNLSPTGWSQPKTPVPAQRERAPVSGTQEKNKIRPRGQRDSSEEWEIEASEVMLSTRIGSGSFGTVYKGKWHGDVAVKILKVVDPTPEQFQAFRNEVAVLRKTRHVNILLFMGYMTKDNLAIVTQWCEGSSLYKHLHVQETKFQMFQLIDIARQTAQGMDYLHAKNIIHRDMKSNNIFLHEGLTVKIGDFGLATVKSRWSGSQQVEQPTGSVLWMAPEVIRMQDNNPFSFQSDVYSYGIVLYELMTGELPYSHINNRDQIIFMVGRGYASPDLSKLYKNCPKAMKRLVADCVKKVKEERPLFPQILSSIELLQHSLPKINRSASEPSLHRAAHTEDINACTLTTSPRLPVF
Sequence of C-Raf FL (P63104 whole entry partner): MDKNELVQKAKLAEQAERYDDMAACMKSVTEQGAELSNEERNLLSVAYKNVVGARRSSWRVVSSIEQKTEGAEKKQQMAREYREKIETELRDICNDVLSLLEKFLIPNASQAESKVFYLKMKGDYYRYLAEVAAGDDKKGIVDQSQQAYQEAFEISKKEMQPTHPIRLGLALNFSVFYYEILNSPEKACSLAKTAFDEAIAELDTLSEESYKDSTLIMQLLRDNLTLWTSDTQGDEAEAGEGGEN
For `Cc1ccc(NC(=O)c2cc(C(F)(F)F)ncn2)cc1-c1cc(OC[C@H](O)CO)nc(C2CCOCC2)c1` [Example 276, (R)-N-(3-(2-(2,3-dihydroxypropoxy)-6-(tetrahydro-2H-pyran-4-yl)pyridin-4-yl)-4-methylphenyl)-6-(trifluoromethyl) pyrimidine-4-carboxamide], the IC50 turned out to be 0.06 nM. Take `Cc1ccc(NC(=O)c2cnc(C(F)(F)F)cn2)cc1-c1cc(OC[C@H](O)CO)nc(C2CCOCC2)c1` [Example 277, (R)-N-(3-(2-(2,3-dihydroxypropoxy)-6-(tetrahydro-2H-pyran-4-yl)pyridin-4-yl)-4-methylphenyl)-5-(trifluoromethyl) pyrazine-2-carboxamide]: the midpoint of inhibition, the IC50, lay at 0.2 nM.

For the compound `Cc1ccc(NC(=O)c2cc(Cl)ccn2)cc1-c1cc(OC[C@H](O)CO)nc(C2CCOCC2)c1` [Example 278, (R)-4-chloro-N-(3-(2-(2,3-dihydroxypropoxy)-6-(tetrahydro-2H-pyran-4-yl)pyridin-4-yl)-4-methylphenyl) picolinamide], half-maximal inhibition (IC50) required 0.05 nM. In the case of `Cc1ccc(NC(=O)c2ccnc(C#N)c2)cc1-c1cc(OC[C@H](O)CO)nc(C2CCOCC2)c1` [Example 279, (R)-2-cyano-N-(3-(2-(2,3-dihydroxypropoxy)-6-(tetrahydro-2H-pyran-4-yl)pyridin-4-yl)-4-methylphenyl) isonicotinamide] it was 0.07 nM; in that of `Cc1ccc(NC(=O)c2ccnc(Cl)c2)cc1-c1cc(OC[C@H](O)CO)nc(C2CCOCC2)c1` [Example 280, (R)-2-chloro-N-(3-(2-(2,3-dihydroxypropoxy)-6-(tetrahydro-2H-pyran-4-yl)pyridin-4-yl)-4-methylphenyl) isonicotinamide], 0.07 nM; in that of `Cc1ccc(NC(=O)c2cncc(C(F)(F)F)c2)cc1-c1cc(OC[C@H](O)CO)nc(C2CCOCC2)c1` [Example 281, (R)-N-(3-(2-(2,3-dihydroxypropoxy)-6-(tetrahydro-2H-pyran-4-yl)pyridin-4-yl)-4-methylphenyl)-5-(trifluoromethyl) nicotinamide], 0.05 nM. In the case of `Cc1ccc(NC(=O)c2cc(C(F)(F)F)c(Cl)cn2)cc1-c1cc(OC[C@H](O)CO)nc(C2CCOCC2)c1` [Example 282, (R)-5-chloro-N-(3-(2-(2,3-dihydroxypropoxy)-6-(tetrahydro-2H-pyran-4-yl)pyridin-4-yl)-4-methylphenyl)-4-(trifluoromethyl) picolinamide] it was 0.3 nM; in that of `Cc1ccc(NC(=O)c2cc(C(F)(F)F)ccn2)cc1-c1cc(OC[C@H](O)CO)nc(C2CCOCC2)c1` [Example 283, (R)-N-(3-(2-(2,3-dihydroxypropoxy)-6-(tetrahydro-2H-pyran-4-yl)pyridin-4-yl)-4-methylphenyl)-4-(trifluoromethyl) picolinamide], 0.07 nM; in that of `Cc1ccc(NC(=O)c2cc(C(F)(F)F)ccn2)cc1-c1cc(OC[C@@H](O)CO)nc(C2CCOCC2)c1` [Example 284], 0.2 nM. The same measure for `CCOc1nnc(-c2cc(NC(=O)c3ccc4c(c3)CNC4)ccc2C)cc1C1CCOCC1` [Example 285, N-(3-(6-ethoxy-5-(tetrahydro-2H-pyran-4-yl)pyridazin-3-yl)-4-methylphenyl) isoindoline-5-carboxamid]: 0.9 nM; for `Cc1ccc(NC(=O)c2ccnc(C(F)(F)F)c2)cc1-c1cc(N2CCOC2=O)nc(C2(O)CCOCC2)c1` [Example 286, N-(3-(2-(4-hydroxytetrahydro-2H-pyran-4-yl)-6-(2-oxooxazolidin-3-yl)pyridin-4-yl)-4-methylphenyl)-2-(trifluoromethyl)isonicotinamide]: 0.297 nM; for `Cc1ccc(NC(=O)c2ccnc(C(F)(F)F)c2)cc1-c1cc(NCCO)nc(C2(O)CCOCC2)c1` [Example 287, N-(3-(2-((2-hydroxyethyl)amino)-6-(4-hydroxytetrahydro-2H-pyran-4-yl)pyridin-4-yl)-4-methylphenyl)-2-(trifluoromethyl)isonicotinamide]: 0.393 nM. Consider `CCOc1ncc(-c2cc(NC(=O)c3ccnc(C(C)(C)C#N)c3)ccc2C)cc1C1(CF)CCOC1` (centres unmarked) [Example 288, 2-(2-cyanopropan-2-yl)-N-(3-(6-ethoxy-5-(3-(fluoromethyl)tetrahydrofuran-3-yl)pyridin-3-yl)-4-methylphenyl)isonicotinamide], for which the IC50 is 0.6 nM. In the case of `CCOc1ncc(-c2cc(NC(=O)c3ccnc(C(C)(C)C#N)c3)ccc2C)cc1C1(CO)CCOC1` (centres unmarked) [Example 289, 2-(2-cyanopropan-2-yl)-N-(3-(6-ethoxy-5-(3-(hydroxymethyl)tetrahydrofuran-3-yl)pyridin-3-yl)-4-methylphenyl) isonicotinamide] it was 2 nM. In the case of `CCOc1ncc(-c2cc(NC(=O)c3cccc(C(F)(F)F)c3)cnc2C)cc1C1(CO)CCOC1` (centres unmarked) [Example 290, N-(6′-ethoxy-5′-(3-(hydroxymethyl)tetrahydrofuran-3-yl)-2-methyl-[3,3′-bipyridin]-5-yl)-3-(trifluoromethyl) benzamide] it was 2 nM; in that of `CCOc1ncc(-c2cc(NC(=O)c3ccnc(C(C)(C)F)c3)ccc2C)cc1C1(CO)CCOC1` (centres unmarked) [Example 291, N-(3-(6-ethoxy-5-(3-(hydroxymethyl)tetrahydrofuran-3-yl)pyridin-3-yl)-4-methylphenyl)-2-(2-fluoropropan-2-yl)isonicotinamide], 1 nM.

`CCOc1ncc(-c2cc(NC(=O)c3ccnc(C(C)(C)F)c3)cnc2C)cc1C1(CO)CCOC1` (centres unmarked) [Example 292, N-(6′-ethoxy-5′-(3-(hydroxymethyl)tetrahydrofuran-3-yl)-2-methyl-[3,3′-bipyridin]-5-yl)-2-(2-fluoropropan-2-yl)isonicotinamide] gave an IC50 of 9 nM. Compared with the last compound, the IC50 is about 9-fold higher.

`CCOc1ncc(-c2cc(NC(=O)c3ccnc(C(C)(C)C#N)c3)ccc2C)cc1C1(O)CCOC1` (centres unmarked) [Example 293, 2-(2-cyanopropan-2-yl)-N-(3-(6-ethoxy-5-(3-hydroxytetrahydro-furan-3-yl)pyridin-3-yl)-4-methylphenyl) isonicotinamide] returned an IC50 of 2 nM. In the case of `CCOc1ncc(-c2cc(NC(=O)c3cccc(C(F)(F)F)c3)cnc2C)cc1C1(O)CCOC1` (centres unmarked) [Example 294, N-(6′-ethoxy-5′-(3-hydroxytetrahydro-furan-3-yl)-2-methyl-[3,3′-bipyridin]-5-yl)-3-(trifluoromethyl) benzamide] it was 2 nM; in that of `CCOc1ncc(-c2cc(NC(=O)c3ccnc(C(C)(C)F)c3)ccc2C)cc1C1(O)CCOC1` (centres unmarked) [Example 295, N-(3-(6-ethoxy-5-(3-hydroxytetra-hydrofuran-3-yl)pyridin-3-yl)-4-methylphenyl)-2-(2-fluoropropan-2-yl)isonicotinamide], 1 nM; in that of `CCOc1ncc(-c2cc(NC(=O)c3ccnc(C(C)(C)F)c3)cnc2C)cc1C1(O)CCOC1` (centres unmarked) [Example 296, N-(6′-ethoxy-5′-(3-hydroxytetrahydro-furan-3-yl)-2-methyl-[3,3′-bipyridin]-5-yl)-2-(2-fluoropropan-2-yl)isonicotinamide], 4 nM. `CCOc1ncc(-c2cc(NC(=O)c3cccc(C(F)(F)F)c3)cnc2C)cc1C1(F)CCOC1` (centres unmarked) [Example 297, N-(6′-ethoxy-5′-(3-fluorotetrahydro-furan-3-yl)-2-methyl-[3,3′-bipyridin]-5-yl)-3-(trifluoro-methyl)benzamide] had a concentration for half-maximal inhibition (IC50) of 1 nM.

In turn, `CCOc1ncc(-c2cc(NC(=O)c3ccnc(C(C)(C)F)c3)cnc2C)cc1C1(F)CCOC1` (centres unmarked) [Example 298, N-(6′-ethoxy-5′-(3-fluorotetrahydro-furan-3-yl)-2-methyl-[3,3′-bipyridin]-5-yl)-2-(2-fluoropropan-2-yl)isonicotinamide] showed a half-inhibitory concentration (IC50) of 2 nM. `Cc1ccc(NC(=O)c2ccnc(C(F)(F)F)c2)cc1-c1cc(NCCO)nc(C2(O)COC2)c1` [Example 299, N-(3-(2-((2-hydroxyethyl)amino)-6-(3-hydroxyoxetan-3-yl)pyridin-4-yl)-4-methylphenyl)-2-(trifluoromethyl) isonicotinamide]: the half-maximal inhibitory concentration (IC50) was determined as 0.1 nM. Compound `Cc1ccc(NC(=O)c2cccc(C(F)(F)F)c2)cc1-c1cc(NCCO)nc(C2(O)COC2)c1` [Example 300, N-(3-(2-((2-hydroxyethyl)amino)-6-(3-hydroxyoxetan-3-yl)pyridin-4-yl)-4-methylphenyl)-3-(trifluoromethyl) benzamide] gave an IC50 of 0.1 nM. In turn, `Cc1ncc(NC(=O)c2cccc(C(F)(F)F)c2)cc1-c1cc(N2CCOC2=O)nc(C2(O)CCOCC2)c1` [Example 301, N-(2′-(4-hydroxytetrahydro-2H-pyran-4-yl)-2-methyl-6′-(2-oxooxazolidin-3-yl)-[3,4′-bipyridin]-5-yl)-3-(trifluoromethyl) benzamide] displayed a half-inhibitory concentration (IC50) of 0.951 nM. This IC50 lies about 9.5-fold higher than the previous one. The same measure for `Cc1ncc(NC(=O)c2cccc(C(F)(F)F)c2)cc1-c1cc(NCCO)nc(C2(O)CCOCC2)c1` [Example 302, N-(2′-((2-hydroxyethyl)amino)-6′-(4-hydroxytetrahydro-2H-pyran-4-yl)-2-methyl-[3,4′-bipyridin]-5-yl)-3-(trifluoromethyl) benzamide]: 1.53 nM; for `Cc1ccc(NC(=O)c2cc(C(F)(F)F)ccn2)cc1-c1cc(NCCO)nc(C2(O)CCOCC2)c1` [Example 303, N-(3-(2-((2-hydroxyethyl)amino)-6-(4-hydroxytetrahydro-2H-pyran-4-yl)pyridin-4-yl)-4-methylphenyl)-4-(trifluoromethyl) picolinamide]: 1.99 nM. Take `Cc1ccc(NC(=O)c2ccnc(C(F)(F)F)c2)cc1-c1cc(OCCO)nc(C2(O)CCOCC2)c1` [Example 305, N-(3-(2-(2-hydroxyethoxy)-6-(4-hydroxytetra-hydro-2H-pyran-4-yl)pyridin-4-yl)-4-methylphenyl)-2-(trifluoro-methyl) isonicotinamide]: the 50% inhibitory concentration (IC50) came out at 0.331 nM.

One may read the IC50 as the concentration needed to halve the response being measured. A lower IC50 goes with higher potency.
